The source of these data is patent publication US12528768B2, “Crystalline form of a 7H-benzo[7]annulene-2-carboxylic acid derivative” (Sanofi, priority 2019, dated 2026).

Series [1] is described as follows: Physical stability of the solid form (exposure to heat, moisture, nitrogen or ambient conditions, followed by XRPD). It is filed as physicochemical. Conditions: for stability of the solid form (in words): overall judgement; for result of exposure to heat and/or moisture: heat (for example 40° C.) and/or moisture. As for the experimental part: II. X-Ray Powder Diffraction (XRPD) Analyses were carried out at room temperature on a Brucker D4 Endeavor instrument using the Bragg-Brentano parafocusing geometry. A sealed copper anode X-ray tube was used (λ, CuKα average=1.54178 Å). A LynxEye linear detector completed the setup. A counting time of few seconds per step in an angular range of from few 2-Theta degrees to several dozen 2-Theta degrees with a 0.016° step size in 20 was used for each sample analysis. For each experiment, the powder was deposited onto the surface of a sample holder.

Series [2] can be described thus: Water sorption isotherms using Dynamic Vapor Sorption (DVS). It is filed as physicochemical. Conditions: for Change in Mass / Change in Mass (water uptake): DVS sorption step, 25° C.; for Change in Mass (water uptake): target RH 95%; for weight gain determined by DVS: about 25° C. (±0.2° C.). As for the experimental part: III. Water Sorption Isotherms Using Dynamic Vapor Sorption (DVS) Experiments were performed on DVS automated gravimetric vapor sorption analyzer (Surface Measurement Systems Ltd., London, UK). Uptake and loss of water by the sample were gravimetrically measured with an ultra-microbalance with a mass resolution of ±0.1 μg. A controlled relative humidity was generated by mixing different proportions of dry and water saturated carrier gas streams. The temperature was maintained constant at 25.0±0.2° C., by enclosing the entire system in a temperature controlled incubator. A sample size between 5 and 20 mg was used. Prior to being exposed to any water vapor the sample was dried at 0% relative humidity (RH) to remove most surface water present and establish a dry, baseline mass. Next, the sample was exposed to an increasing relative humidity raised by steps of 5% RH, from 0 to 95% RH.

Each structure is given as a SMILES string.

Take `O=C(O)c1ccc2c(c1)CCCC(c1ccc(Cl)cc1Cl)=C2c1ccc(O[C@H]2CCN(CCCF)C2)cc1` [anhydrate crystalline Form 1, 6-(2,4-dichlorophenyl)-5-[4-[(3S)-1-(3-fluoropropyl)pyrrolidin-3-yl]oxyphenyl]-8,9-dihydro-7H-benzo[7]annulene-2-carboxylic acid]: in series [1], the “stability of the solid form (in words)” value was “metastable”. In addition, the “Change in Mass” value is listed as 0.00% in series [2] (target RH 0%); 0.20% in series [2] (target RH 10%); 0.54% in series [2] (target RH 20%); 0.99% in series [2] (target RH 30%); 1.54% in series [2] (target RH 40%); 2.09% in series [2] (target RH 50%). In addition, the “Change in Mass” value in series [2] (target RH 60%) was 2.57%; in series [2] (target RH 70%), 2.99%; in series [2] (target RH 80%), 3.36%; in series [2] (target RH 90%) it was 3.76%. The “Change in Mass (water uptake)” value in series [2] is 4.07%. Further, the “weight gain determined by DVS” value in series [2] (at 95% relative humidity) worked out at 4.07 weight %.

As to `O=C(O)c1ccc2c(c1)CCCC(c1ccc(Cl)cc1Cl)=C2c1ccc(O[C@H]2CCN(CCCF)C2)cc1` [2-propanol solvate], the transformation upon heating result in series [1] (upon heating) is recorded as “transforms into anhydrate Form 3 which itself generally transforms into anhydrate Form 2”.

With `O=C(O)c1ccc2c(c1)CCCC(c1ccc(Cl)cc1Cl)=C2c1ccc(O[C@H]2CCN(CCCF)C2)cc1` [compound of formula (1), 6-(2,4-dichlorophenyl)-5-[4-[(3S)-1-(3-fluoropropyl)pyrrolidin-3-yl]oxyphenyl]-8,9-dihydro-7H-benzo[7]annulene-2-carboxylic acid], the “storage requirement for stability over time” value in series [1] (amorphous form, industrial scale handling) was “needs storage under refrigerated conditions to maintain its stability over time”.

Turning to `O=C(O)c1ccc2c(c1)CCCC(c1ccc(Cl)cc1Cl)=C2c1ccc(O[C@H]2CCN(CCCF)C2)cc1` [acetone solvate], in series [1], the “result of exposure to ambient conditions or dry nitrogen” value is reported as “converts to low crystalline materials” and the “stability of the solid form (in words)” value is “physically unstable”.

Turning to `O=C(O)c1ccc2c(c1)CCCC(c1ccc(Cl)cc1Cl)=C2c1ccc(O[C@H]2CCN(CCCF)C2)cc1` [anhydrate crystalline Form 3, 6-(2,4-dichlorophenyl)-5-[4-[(3S)-1-(3-fluoropropyl)pyrrolidin-3-yl]oxyphenyl]-8,9-dihydro-7H-benzo[7]annulene-2-carboxylic acid], the “stability of the solid form (in words)” value in series [1] was “metastable”. The “Change in Mass” value in series [2] (target RH 0%) stood at 0.00%; in series [2] (target RH 10%) it was 0.78%; in series [2] (target RH 20%), 1.13%; in series [2] (target RH 30%), 1.29%; in series [2] (target RH 40%), 1.46%; in series [2] (target RH 50%), 2.21%. For the same molecule, the “Change in Mass” value amounted to 2.46% in series [2] (target RH 60%), 2.62% in series [2] (target RH 70%), 2.73% in series [2] (target RH 80%) and 2.84% in series [2] (target RH 90%). The “Change in Mass (water uptake)” value in series [2] was determined as 2.92%. Besides, the “weight gain determined by DVS” value in series [2] (at 95% relative humidity) was 2.92 weight %.

As to `O=C(O)c1ccc2c(c1)CCCC(c1ccc(Cl)cc1Cl)=C2c1ccc(O[C@H]2CCN(CCCF)C2)cc1` [DCM solvate], in series [1], the “result of exposure to heat and/or moisture” value was “formation of the anhydrate Form 1” and the “stability of the solid form (in words)” value is reported as “unstable”. Further, the “result of exposure to heat and/or N2” value in series [1] (heat and/or N2) was “formation of the anhydrate Form 4”.

`O=C(O)c1ccc2c(c1)CCCC(c1ccc(Cl)cc1Cl)=C2c1ccc(O[C@H]2CCN(CCCF)C2)cc1` [1,4-dioxane solvate]: in series [1], the “stability of the solid form (in words)” value is on record as “physically unstable”. The “conversion at room temperature” value in series [1] (room temperature, one week) is “converts at room temperature to an unknown poorly crystallized solid form”.

On to `O=C(O)c1ccc2c(c1)CCCC(c1ccc(Cl)cc1Cl)=C2c1ccc(O[C@H]2CCN(CCCF)C2)cc1` [butanol solvate], for which, in series [1], the “result of exposure to ambient conditions or dry nitrogen” value is reported as “converts to an amorphous form” and the “stability of the solid form (in words)” value was “physically unstable”.

With `O=C(O)c1ccc2c(c1)CCCC(c1ccc(Cl)cc1Cl)=C2c1ccc(O[C@H]2CCN(CCCF)C2)cc1` [THF solvate], in series [1], the “result of exposure to heat and/or moisture” value is recorded as “formation of the anhydrate form 1” and the “stability of the solid form (in words)” value is on record as “unstable”.

Consider `O=C(O)c1ccc2c(c1)CCCC(c1ccc(Cl)cc1Cl)=C2c1ccc(O[C@H]2CCN(CCCF)C2)cc1` [ethanol solvate], for which, in series [1], the “result of exposure to heat and/or moisture” value was “formation of the anhydrate Form 1” and the “stability of the solid form (in words)” value is “unstable”.

Consider `O=C(O)c1ccc2c(c1)CCCC(c1ccc(Cl)cc1Cl)=C2c1ccc(O[C@H]2CCN(CCCF)C2)cc1` [anhydrate crystalline Form 4, 6-(2,4-dichlorophenyl)-5-[4-[(3S)-1-(3-fluoropropyl)pyrrolidin-3-yl]oxyphenyl]-8,9-dihydro-7H-benzo[7]annulene-2-carboxylic acid], for which the “stability of the solid form (in words)” value in series [1] is listed as “metastable”. The “Change in Mass” value came out at 0.00% in series [2] (target RH 0%); 0.07% in series [2] (target RH 10%); 0.21% in series [2] (target RH 20%); 0.34% in series [2] (target RH 30%); 0.43% in series [2] (target RH 40%); 0.51% in series [2] (target RH 50%). Also, the “Change in Mass” value was found to be 0.58% in series [2] (target RH 60%), 0.64% in series [2] (target RH 70%), 0.71% in series [2] (target RH 80%) and 0.75% in series [2] (target RH 90%). For the same molecule, in series [2] (at 90% relative humidity), the “weight gain determined by DVS” value turned out to be 0.75 weight %.

Consider `O=C(O)c1ccc2c(c1)CCCC(c1ccc(Cl)cc1Cl)=C2c1ccc(O[C@H]2CCN(CCCF)C2)cc1` [anhydrate crystalline Form 2, 6-(2,4-dichlorophenyl)-5-[4-[(3S)-1-(3-fluoropropyl)pyrrolidin-3-yl]oxyphenyl]-8,9-dihydro-7H-benzo[7]annulene-2-carboxylic acid], for which the “conversion after exposure to moisture” value in series [1] (exposure to moisture) is reported as “does not convert to another crystalline form”. Besides, the “effect of temperature variations on crystal structure” value in series [1] (exposure to temperature variations) is listed as “does not alter the crystal structure before its melting”. In series [1], the “stability of the solid form (in words)” value is reported as “stable”. The “stability under ambient conditions of temperature and pressure” value in series [1] (room temperature and ambient pressure) is listed as “thermodynamically more stable”. Further, the “hygroscopicity (in words)” value in series [2] (0 to 95% relative humidity, about 25° C., European pharmacopoeia wording) is “no hygroscopicity”. Further, the “Change in Mass” value in series [2] (target RH 0%) is 0%; in series [2] (target RH 10%), 0.01%; in series [2] (target RH 20%), 0.02%; in series [2] (target RH 30%), 0.02%; in series [2] (target RH 40%), 0.03%; in series [2] (target RH 50%) it was 0.03%. Also, the “Change in Mass” value in series [2] (target RH 60%) is 0.04%; in series [2] (target RH 70%) it was 0.05%; in series [2] (target RH 80%), 0.05%; in series [2] (target RH 90%), 0.06%. Further, the “Change in Mass (water uptake)” value in series [2] amounted to 0.06%.
